# According to patent publication US20140206624A1, “TREATMENT OF LEUKEMIA” (THE BRIGHAM AND WOMEN'S HOSPITAL, INC., priority 2011, published 2014):
# Tested on: L-GMP population
# Assay: L-GMP and mature myeloid cell proportion in leukemic BM
# Format: in vivo, mouse
# Settings: seven days following pI-pC, Mx1-Cre+
# Description: (§1) Seven days following the administration of saline or pI-pC, secondary mice transplanted with MLL-AF9-positive FoxO1/3/4^floxed; Mx1-Cre+ leukmic BM cells were euthanized. Leukemic BM cells were then isolated from each treatment condition (Saline (Ctrl) versus pI-pC (pI-pC)) were analyzed for the proportion of L-GMPs (lineage^low, Sca-1^−, cKit^hi, CD34^+, FcgRII/III^+, p=0.039; n=3).
# as §1, with “leukemic” for “leukmic”, “mature myeloid cells (lineage^hi, CD11b^+, p=0.0098; n=3)” for “L-GMPs (lineage^low, Sca-1^−, cKit^hi, CD34^+, FcgRII/III^+, p=0.039; n=3).”
# L-GMP and GMP populations were analyzed and sorted with a BD FACSARIA™ instrument (BD™ Biosciences). To analyze and isolate L-GMPs and GMPs, total BM cells were recovered from flushing the tibias and femurs of leukemic and healthy mice respectively with PBS supplemented with 2% FBS and 1% Penicillin/Streptomycin (F-PBS). […] For Phosphoflow experiments, cells were stained with cKit-Ax750 and CD34-antibodies in combination with phospho-AKT^Ser473-PE, phospho-AKT^Thr308-APC or phospho-S6^Ser235/236-APC antibodies and analyzed on a FACSAria according to the following protocol: • 1. […]
substance,measurement,value
polyinosine-polycytidyline [pI-pC],L-GMPs,immunophenotypic reduction
same,"lineage^hi, CD11b^hi(+) myeloid cells",concomitant increase
